ChEMBL document CHEMBL1201861, “Genomics of Drug Sensitity in Cancer screening data, Wellcome Trust Sanger Institute”

Tests used:
Assay in all cases: cells
Assay type in all cases: functional, cell-based, Homo sapiens
DMS-273 = details: Homo sapiens, DMS-273
Description: SANGER: Inhibition of human DMS-273 cell growth in a cell viability assay.

NCI-H28 = details: Homo sapiens, NCI-H28;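 also: growth inhibition of human NCI-H28 cells, read out as cell viability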
Description: SANGER: Inhibition of human NCI-H28 cell growth in a cell viability assay.

NCI-H2291 = details: Homo sapiens, NCI-H2291
Description: SANGER: Inhibition of human NCI-H2291 cell growth in a cell viability assay.

BHY = details: Homo sapiens, BHY;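 also: cell growth inhibition read out by a viability assay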
Description: SANGER: Inhibition of human BHY cell growth in a cell viability assay.

DBTRG-05MG = details: Homo sapiens, DBTRG-05MG;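 also: cell viability assay measuring growth inhibition of human DBTRG-05MG cells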
Description: SANGER: Inhibition of human DBTRG-05MG cell growth in a cell viability assay.

MIA PaCa-2 = details: Homo sapiens, MIA PaCa-2;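 also: growth inhibition of MIA PaCa-2 cells, read out with a cell viability assay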
Description: SANGER: Inhibition of human MIA-PaCa-2 cell growth in a cell viability assay.

CWR22R = details: Homo sapiens, 22Rv1;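 also: growth inhibition of 22Rv1 cells, read out with a cell viability assay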
Description: SANGER: Inhibition of human 22RV1 cell growth in a cell viability assay.

CFPAC-1 = details: Homo sapiens, CFPAC-1;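 also: cell viability readout used to gauge suppression of CFPAC-1 cell proliferation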
Description: SANGER: Inhibition of human CFPAC-1 cell growth in a cell viability assay.

NCI-H630 = details: Homo sapiens, NCI-H630;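 also: growth inhibition of NCI-H630 cells, read out with a cell viability assay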
Description: SANGER: Inhibition of human NCI-H630 cell growth in a cell viability assay.

EFO-21 = details: Homo sapiens, EFO-21;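 also: growth inhibition of EFO-21 cells measured with a viability assay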
Description: SANGER: Inhibition of human EFO-21 cell growth in a cell viability assay.

MDA-MB-175-VII = details: Homo sapiens, MDA-MB-175-VII
OVCAR-3 = details: Homo sapiens, OVCAR-3;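 also: growth inhibition of human OVCAR-3 cells, determined by a cell viability assay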
Description: SANGER: Inhibition of human OVCAR-3 cell growth in a cell viability assay.

Calu-3 = details: Homo sapiens, Calu-3;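 also: growth inhibition of human Calu-3 cells, determined with a cell viability assay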
Description: SANGER: Inhibition of human Calu-3 cell growth in a cell viability assay.

D-566MG = details: Homo sapiens, D-566MG
C32 = details: Homo sapiens, C32;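 also: cell viability assay, with IC50 reflecting inhibition of C32 cell growth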
Description: SANGER: Inhibition of human C32 cell growth in a cell viability assay.

HCT-116 = details: Homo sapiens, HCT-116
Description: SANGER: Inhibition of human HCT-116 cell growth in a cell viability assay.

RPMI-2650 = details: Homo sapiens, RPMI-2650
Description: SANGER: Inhibition of human RPMI-2650 cell growth in a cell viability assay.

CAL-72 = details: Homo sapiens, CAL-72;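 also: cell viability assay measuring inhibition of proliferation in the CAL-72 cell line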
Description: SANGER: Inhibition of human CAL-72 cell growth in a cell viability assay.

NCI-H1437 = details: Homo sapiens, NCI-H1437;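 also: growth inhibition of human NCI-H1437 cells, read out by a cell viability assay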
Description: SANGER: Inhibition of human NCI-H1437 cell growth in a cell viability assay.

COLO-679 = details: Homo sapiens, COLO-679
Description: SANGER: Inhibition of human COLO-679 cell growth in a cell viability assay.

M14 = details: Homo sapiens, M14;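 also: growth inhibition of M14 cells, read out with a cell viability assay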
Description: SANGER: Inhibition of human M14 cell growth in a cell viability assay.

YH-13 = details: Homo sapiens, YH-13;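 also: cell viability readout of growth suppression in the human YH-13 cell line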
Description: SANGER: Inhibition of human YH-13 cell growth in a cell viability assay.

OE19 = details: Homo sapiens, OE19;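 also: growth inhibition of OE19 cells, measured through a cell viability read-out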
Description: SANGER: Inhibition of human OE19 cell growth in a cell viability assay.

C3A = details: Homo sapiens, C3A;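 also: growth inhibition of C3A human cells, quantified with a cell viability readout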
Description: SANGER: Inhibition of human C3A cell growth in a cell viability assay.

ME-180 = details: Homo sapiens, ME-180;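 also: cell viability assay measuring growth inhibition of ME-180 cells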
Description: SANGER: Inhibition of human ME-180 cell growth in a cell viability assay.

SBC-5 = details: Homo sapiens, SBC-5;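 also: cell viability assay read-out, IC50 is the concentration that inhibits growth of the cells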
Description: SANGER: Inhibition of human SBC-5 cell growth in a cell viability assay.

ChaGo-K-1 = details: Homo sapiens, ChaGo-K-1;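 also: growth inhibition of ChaGo-K-1 cells, read out with a cell viability assay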
Description: SANGER: Inhibition of human ChaGo-K-1 cell growth in a cell viability assay.

PC-14 = details: Homo sapiens, PC-14;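 also: cell viability assay measuring inhibition of PC-14 cell growth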
Description: SANGER: Inhibition of human PC-14 cell growth in a cell viability assay.

SW1417 = details: Homo sapiens, SW1417;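 also: growth inhibition of human SW1417 cells, read out with a cell viability assay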
Description: SANGER: Inhibition of human SW1417 cell growth in a cell viability assay.

NCI-H520 = details: Homo sapiens, NCI-H520;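 also: growth inhibition of NCI-H520 cells, measured by a cell viability assay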
Description: SANGER: Inhibition of human NCI-H520 cell growth in a cell viability assay.

CAL-51 = details: Homo sapiens, CAL-51;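 also: human CAL-51 cell line, growth inhibition read out via a cell viability assay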
Description: SANGER: Inhibition of human CAL-51 cell growth in a cell viability assay.

VMRC-RCZ = details: Homo sapiens, VMRC-RCZ;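 also: growth inhibition measured with a cell viability assay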
Description: SANGER: Inhibition of human VMRC-RCZ cell growth in a cell viability assay.

KYSE-70 cell line = details: Homo sapiens, KYSE-70;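 also: cell viability assay read-out, with IC50 expressing suppression of KYSE-70 cell growth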
Description: SANGER: Inhibition of human KYSE-70 cell growth in a cell viability assay.

DK-MG = details: Homo sapiens, DK-MG;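 also: growth inhibition of DK-MG cells, read out with a cell viability assay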
Description: SANGER: Inhibition of human DK-MG cell growth in a cell viability assay.

HCC1569 = details: Homo sapiens, HCC1569;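 also: growth inhibition of human HCC1569 cells, read out with a cell viability assay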
Description: SANGER: Inhibition of human HCC1569 cell growth in a cell viability assay.

COLO-680N = details: Homo sapiens, COLO-680N;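 also: cell viability assay used to measure inhibition of COLO-680N cell growth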
Description: SANGER: Inhibition of human COLO-680N cell growth in a cell viability assay.

Panc1005 = details: Homo sapiens, Panc1005;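 also: growth inhibition of human PANC-10-05 cells, measured by a cell viability assay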
Description: SANGER: Inhibition of human PANC-10-05 cell growth in a cell viability assay.

MKN-1 = details: Homo sapiens, MKN-1;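 also: growth inhibition of human MKN1 cells, read out by a cell viability measurement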
Description: SANGER: Inhibition of human MKN1 cell growth in a cell viability assay.

`CN(C)C(=N)NC(=N)N` [METFORMIN] gave an IC50 (DMS-273) of 13600 µM, an IC50 (NCI-H28) of 12000 µM and an IC50 (NCI-H2291) of over 20000 µM. For the same compound, the IC50 (BHY) was over 20000 µM, the IC50 (DBTRG-05MG) was 7270 µM and the IC50 (MIA PaCa-2) was over 20000 µM. For the same compound, the IC50 (CWR22R) was 18000 µM, the IC50 (CFPAC-1) was over 20000 µM and the IC50 (NCI-H630) was over 20000 µM. The IC50 (EFO-21) was over 20000 µM, the IC50 (MDA-MB-175-VII) was over 20000 µM and the IC50 (OVCAR-3) was 17600 µM. The IC50 (Calu-3) was over 20000 µM, the IC50 (D-566MG) was 10800 µM and the IC50 (C32) was over 20000 µM. For the same compound, the IC50 (HCT-116) was over 20000 µM, the IC50 (RPMI-2650) was over 20000 µM and the IC50 (CAL-72) was 6270 µM. For the same compound, the IC50 (NCI-H1437) was over 20000 µM, the IC50 (COLO-679) was over 20000 µM and the IC50 (M14) was over 20000 µM. For the same compound, the IC50 (YH-13) was over 20000 µM, the IC50 (OE19) was over 20000 µM and the IC50 (C3A) was 11300 µM. For the same compound, the IC50 (ME-180) was over 20000 µM, the IC50 (SBC-5) was 17100 µM and the IC50 (ChaGo-K-1) was 8890 µM. It also gave an IC50 (PC-14) of 17600 µM.
Work on `Cn1cnc2c(F)c(Nc3ccc(Br)cc3Cl)c(C(=O)NOCCO)cc21` [SELUMETINIB] yielded an IC50 (DMS-273) of over 4 µM, an IC50 (NCI-H28) of over 4 µM and an IC50 (NCI-H2291) of 0.762 µM. The IC50 (BHY) was 1.81 µM, the IC50 (DBTRG-05MG) was over 4 µM and the IC50 (MIA PaCa-2) was 0.898 µM. The IC50 (CWR22R) was over 4 µM, the IC50 (SW1417) was over 4 µM and the IC50 (CFPAC-1) was over 4 µM. The IC50 (NCI-H520) was over 4 µM, the IC50 (NCI-H630) was over 4 µM and the IC50 (EFO-21) was 3.19 µM. For the same compound, the IC50 (MDA-MB-175-VII) was over 4 µM, the IC50 (CAL-51) was over 4 µM and the IC50 (OVCAR-3) was over 4 µM. The IC50 (Calu-3) was over 4 µM, the IC50 (D-566MG) was over 4 µM and the IC50 (C32) was 0.0982 µM. The IC50 (VMRC-RCZ) was over 4 µM, the IC50 (HCT-116) was 1.06 µM and the IC50 (RPMI-2650) was over 4 µM. For the same compound, the IC50 (KYSE-70 cell line) was over 4 µM, the IC50 (CAL-72) was over 4 µM and the IC50 (NCI-H1437) was 0.353 µM. The IC50 (COLO-679) was 0.341 µM, the IC50 (M14) was 0.0369 µM and the IC50 (YH-13) was over 4 µM. For the same compound, the IC50 (OE19) was over 4 µM, the IC50 (DK-MG) was over 4 µM and the IC50 (C3A) was over 4 µM. For the same compound, the IC50 (ME-180) was over 4 µM, the IC50 (HCC1569) was over 4 µM and the IC50 (SBC-5) was over 4 µM. The IC50 (COLO-680N) was over 4 µM, the IC50 (ChaGo-K-1) was over 4 µM and the IC50 (Panc1005) was over 4 µM. It also gave an IC50 (PC-14) of over 4 µM.
Compound `CC(C)c1ccccc1Cc1cc(C(=O)Nc2ccc(S(=O)(=O)c3ccccc3C(C)(C)C)cc2)c(O)c(O)c1O` has an IC50 (DMS-273) of 0.1 µM, an IC50 (NCI-H28) of 0.447 µM and an IC50 (NCI-H2291) of 21 µM. For the same compound, the IC50 (BHY) was 0.702 µM, the IC50 (DBTRG-05MG) was 1.46 µM and the IC50 (MIA PaCa-2) was 0.479 µM. The IC50 (CWR22R) was 1.03 µM, the IC50 (SW1417) was 1.91 µM and the IC50 (CFPAC-1) was 0.522 µM. The IC50 (NCI-H520) was 0.606 µM, the IC50 (NCI-H630) was 0.808 µM and the IC50 (EFO-21) was 2.6 µM. It also gave an IC50 (MDA-MB-175-VII) of 0.451 µM, an IC50 (CAL-51) of 0.349 µM and an IC50 (OVCAR-3) of 0.379 µM. For the same compound, the IC50 (Calu-3) was 5.4 µM, the IC50 (D-566MG) was 0.116 µM and the IC50 (C32) was 2.02 µM. For the same compound, the IC50 (VMRC-RCZ) was 7.75 µM, the IC50 (HCT-116) was 0.0527 µM and the IC50 (RPMI-2650) was 0.238 µM. It also gave an IC50 (KYSE-70 cell line) of 5.31 µM, an IC50 (CAL-72) of 0.968 µM and an IC50 (NCI-H1437) of 0.538 µM. It also gave an IC50 (COLO-679) of 0.234 µM, an IC50 (M14) of 2.83 µM and an IC50 (YH-13) of 0.0706 µM. The IC50 (OE19) was 5.98 µM, the IC50 (DK-MG) was 2.9 µM and the IC50 (C3A) was 1.82 µM. It also gave an IC50 (HCC1569) of 4.88 µM, an IC50 (SBC-5) of 0.147 µM and an IC50 (COLO-680N) of 1.43 µM. The IC50 (ChaGo-K-1) was 0.296 µM, the IC50 (MKN-1) was 0.623 µM and the IC50 (Panc1005) was 1.1 µM. It also gave an IC50 (PC-14) of 0.331 µM.
